Reference: US11484543B2, “Compositions and methods for diagnosing and treating diseases and disorders associated with mutant KCNJ5” (The Rockefeller University, priority 2017, dated 2022)
Where a chain is given by its changes, count along the chain named.

Tests used:
Format in all cases: cell-based
[1] = molecular target: T1, KCNJ5^WT (Homo sapiens, UniProt P48544); experiment: Membrane potential assay (FLIPR dye) in inducible KCNJ5^WT HEK293 cells; details: 10-point dilution 20 to 0.0391 μM, N=3, four-parameter fit
T1 construct: expressed in transfected cells
T1 sequence (P48544 1-419): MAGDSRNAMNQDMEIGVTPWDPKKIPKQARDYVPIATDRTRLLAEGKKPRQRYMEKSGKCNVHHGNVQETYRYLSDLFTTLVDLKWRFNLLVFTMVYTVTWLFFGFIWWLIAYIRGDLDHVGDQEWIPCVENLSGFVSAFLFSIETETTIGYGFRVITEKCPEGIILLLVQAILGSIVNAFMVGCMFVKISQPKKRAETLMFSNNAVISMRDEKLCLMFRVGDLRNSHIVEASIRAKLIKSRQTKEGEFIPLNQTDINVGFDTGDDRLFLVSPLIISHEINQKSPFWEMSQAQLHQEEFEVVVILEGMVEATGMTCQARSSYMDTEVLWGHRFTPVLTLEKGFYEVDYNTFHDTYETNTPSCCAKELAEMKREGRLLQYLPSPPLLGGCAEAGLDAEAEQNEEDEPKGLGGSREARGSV
Experimental: (§1) Single copies of WT or mutant human KCNJ5 cDNAs expressed under the control of tetracycline-inducible promoter were introduced into HEK293 cells using the Flp-in T-Rex System (Invitrogen) according to the manufacturer's instructions. Cells were grown in selective media containing 10% Tet-system approved FBS (Clontech) until induction.
20 μL of WT cells were plated into sterile black with clear bottom tissue culture-treated 384-well plates (Corning) at a density of 10000 cells/well using a Multidrop Combi. Assay plates were centrifuged at 500 rpm for 10 seconds and incubated overnight at 37° C. in a humidified 5% CO2 incubator. After the overnight incubation, 1 μL of tetracycline (final conc. 1 μg/mL) was added to all wells by Multidrop Combi to induce KCNJ5. Assay plates were centrifuged at 500 rpm for 10 seconds and incubated overnight at 37° C. in a humidified 5% CO2 incubator. The next day, 10 μL of medium was removed from each well using a PlateMate Plus (Thermo Scientific). 10 μL of Blue Formula FLIPR membrane potential dye (Molecular Devices) was added to cells using a Multichannel pipettor. Assay plates were incubated for 30 minutes. at 37° C. After incubation, 20 nL was transferred twice from the compound source plate to the cell assay plate using an Aquarius with a 384-well pin tool for a total transfer volume of 40 nL and a final DMSO concentration of 0.2%. 1 μL of 20 mM BaCl2 was added to positive control wells using a Multichannel pipettor. The assay plate was incubated 20 minutes at room temperature in the dark.
Changes in membrane potential were detected using a well-established fluorescence-based measure of membrane potential (FIG. 4).

[2] = molecular target: T2, KCNJ5^G151R (Homo sapiens, UniProt P48544, G151R); experiment: cell-based; details: for G151R maximum inhibition / G151R minimum inhibition / IC50: 10-point dilution 20 to 0.0391 μM, N=3, four-parameter fit; for inhibition of KCNJ5^MUT (structure-activity statement): macrolide series, dilution curves; for dose response on KCNJ5^G151R: tested at 1.1, 3.3 and 10 μM
T2 construct: expressed in transfected cells
T2 sequence (P48544 1-419 G151R): T1 sequence (P48544 1-419) with G151R
Experimental: as §1, with “WT or mutant human KCNJ5 cDNAs (Choi et al., 2011, Science 331:768-772) were subcloned into the pcDNA5/FRT/TO vector using BamHI and HindIII. Single” for “Single”
(§2) Assay plates were centrifuged and incubated overnight at 37° C. 20 nL was transferred from the compound source plate to the cell assay plate using an Aquarius (Tecan) with a 384-well pin tool (V&P Scientific). The final concentration of compound for screening was 10 μM and the final DMSO concentration was 0.1%. 1 μL of tetracycline (final concentration 1 μg/mL) was added to compound containing and negative control wells by Multidrop Combi to induce expression. 1 μL of media was added to positive control wells. Assay plates were centrifuged and incubated for 72 hours at 37° C., 5% CO2. CellTiter-Glo (Promega) was used to measure cell viability in the assay wells according to the manufacturer's instructions. 10 μL/well of CellTiter-Glo reagent was added to the assay plates using a MultiDrop Combi. The plates were shaken on a Thermomixer R (Eppendorf) at 1100 rpm for 1 minute and incubated in the dark for 10 minutes at room temperature. Luminescence was read on an Envision plate reader (PerkinElmer) with 0.3 second sampling time per well. Raw data (luminescence counts per second) was normalized to percent effect by the formula 100−(((sample−negative control mean)/(positive control mean−negative control mean))*100).
(§3) Data was analyzed using the programs Excel (Microsoft) and Prism (GraphPad). Errors are SD unless otherwise indicated in the legend. Dose-response curves were fitted with a four-parameter logistic equation: F(x)=D+(A−D)/(1+(x/C)^B), with A=minimum inhibition B=Hill's slope C=inflection point D=maximum inhibition Synthesis of Macrolide Derivatives
(§4) Cellular ATP levels were measured as a proxy for cell viability, using a commercially available luciferase assay (Crouch et al., 1993, Proc. Natl. Acad. Sci. U.S.A. 109:2533-2538).
(§5) Conditions were designed to maximize reproducibility and the signal-to-background ratios (S/B) (Zhang et al., 1999, J. Biomol. Screen 4:67-73) comparing ATP level in uninduced and induced cells. Screening was performed in 384-well plates; compounds were added 24 hours after plating, and channel expression was induced immediately after compound addition. ATP levels were measured 72 hours after induction.
Levels of ATP in uninduced and induced cells without added test compound defined 100% and 0% effect, respectively, and served as a proxy for lethality.

[3] = molecular target: T3, KCNJ5^L168R (Homo sapiens, UniProt P48544, L168R); experiment: Cell viability assay (ATP, CellTiter-Glo): rescue of KCNJ5^L168R-induced lethality in inducible HEK293 cells; details: for L168R IC50 / IC50 / L168R maximum inhibition / L168R minimum inhibition: 10-point dilution 20 to 0.0391 μM, N=3, four-parameter fit; for dose response on KCNJ5^L168R: tested at 1.1, 3.3 and 10 μM
T3 construct: expressed in transfected cells
T3 sequence (P48544 1-419 L168R): T1 sequence (P48544 1-419) with L168R
Experimental: as §1, with “WT or mutant human KCNJ5 cDNAs (Choi et al., 2011, Science 331:768-772) were subcloned into the pcDNA5/FRT/TO vector using BamHI and HindIII. Single” for “Single”
as §2, §3, §4, §5

Molecule	WT IC50 [1]	G151R maximum inhibition [2] [%]	G151R minimum inhibition [2] [%]	IC50 [2] [µM]	activity against KCNJ5^G151R in the primary screen ([2]; 10 μM)	other results
CC[C@H]1OC(=O)[C@H](C)[C@@H](O[C@H]2C[C@@](C)(OC)[C@@H](O)[C@H](C)O2)[C@H](C)[C@@H](O[C@@H]2O[C@H](C)C[C@H](N(C)C)[C@H]2O)[C@@]2(C)C[C@@H](C)[C@@]3(O[C@@]1(C)[C@H](O)[C@H]3C)O2 [Anhydroerythromycin A, anhydroerythromycin A]	No fit	60.00	5.61	8.6		L168R IC50 [3]: No fit
CC[C@H]1OC(=O)[C@H](C)[C@@H](O[C@H]2C[C@@](C)(OC)[C@@H](O)[C@H](C)O2)[C@H](C)[C@@H](O[C@@H]2O[C@H](C)C[C@H](N(C)C)[C@H]2O)[C@](C)(O)C[C@@H](C)CN(C)[C@H](C)[C@@H](O)[C@]1(C)O [Azithromycin, azithromycin]	No fit	32.00	5.11	5.69		IC50 [3]: 8.05 µM; L168R maximum inhibition [3]: 12.01%; L168R minimum inhibition [3]: 0.71%
CC[C@H]1OC(=O)[C@H](C)[C@@H](O[C@H]2C[C@@](C)(OC)[C@@H](O)[C@H](C)O2)[C@H](C)[C@@H](O[C@@H]2O[C@H](C)C[C@H](N(C)C)[C@H]2O)[C@](C)(OC)C[C@@H](C)C(=O)[C@H](C)[C@@H](O)[C@]1(C)O [Clarithromycin, clarithromycin]	No fit	83.09	6.40	0.71		inhibition of KCNJ5^MUT (structure-activity statement) [2]: potent effects; IC50 [3]: 1.72 µM; L168R maximum inhibition [3]: 55.70%; L168R minimum inhibition [3]: 2.35%; dose response on KCNJ5^L168R [3]: showed a dose response
CC[C@H]1OC(=O)[C@H](C)[C@@H](O[C@H]2C[C@@](C)(OC)[C@@H](O)[C@H](C)O2)[C@H](C)[C@@H](O[C@@H]2O[C@H](C)C[C@H](N(C)C)[C@H]2O)[C@](C)(O)C[C@@H](C)[C@@H]2N[C@@H](COCCOC)O[C@H]([C@H]2C)[C@]1(C)O [Dirithromycin, dirithromycin]	No fit	18.29	1.31	15.8		L168R IC50 [3]: No fit
CCN(CC)CCN1c2ccccc2Sc2ccc3ccccc3c21 [NSC18883]						dose response on KCNJ5^G151R [2]: potent inhibitors; dose response on KCNJ5^L168R [3]: either high IC50 values or low maximum inhibition
C1CCC(N=C(NC23CC4CC(CC(C4)C2)C3)N2CCOCC2)CC1.Cl [YU224116, U-37883A-HCl]						% effect (1) ([2]; 10 μM, ATP level 72 h after induction, uninduced = 100%, induced = 0% effect, first of the two runs (primary screen / hit pick)): 49.9%; % effect (2) ([2]; 10 μM, ATP level 72 h after induction, uninduced = 100%, induced = 0% effect, second of the two runs (primary screen / hit pick, confirmatory testing)): 65.8%; mean % effect ([2]; 10 μM, mean of primary screen and hit pick): 57.9%; dose response on KCNJ5^G151R [2]: potent inhibitors; dose response on KCNJ5^L168R [3]: either high IC50 values or low maximum inhibition
CO[C@H]1C[C@H](O[C@H]2[C@H](C)[C@@H](O[C@@H]3O[C@H](C)C[C@H](N(C)C)[C@H]3O)[C@@H](C)C[C@@]3(CO3)C(=O)[C@H](C)[C@@H](O)[C@@H](C)[C@@H](C)OC(=O)[C@@H]2C)O[C@@H](C)[C@@H]1O [oleandomycin]					little or no activity	
CC[C@@H]1C=CC=CC[C@H](C)[C@@H](O)[C@@H](C)C(=O)[C@H](C)[C@@H](O)[C@H](C)C(=O)[C@H](C)[C@@H](O)[C@H](C)C=CC(=O)O[C@H]2[C@@H](C)[C@@H](CC1)O[C@@]1(CC[C@@H](C)[C@@H](C[C@H](C)O)O1)[C@@H]2C [oligomycin C]					little or no activity	
C=C1c2cccc(O)c2C(=O)C2=C(O)[C@]3(O)C(=O)C(C(N)=O)=C(O)[C@@H](N(C)C)[C@@H]3[C@@H](O)[C@H]12 [rondomycin]					little or no activity	
CC[C@H]1OC(=O)[C@H](C)C(=O)[C@H](C)[C@@H](O[C@@H]2O[C@H](C)C[C@H](N(C)C)[C@H]2O)[C@](C)(OC)C[C@@H](C)C(=O)[C@H](C)[C@H]2N(CCCCn3cnc(-c4cccnc4)c3)C(=O)O[C@]12C [telithromycin]					below activity threshold	inhibition of KCNJ5^MUT (structure-activity statement) [2]: loss of inhibition
CO[C@H]1C[C@H](O[C@H]2[C@H](C)[C@@H](O[C@@H]3O[C@H](C)C[C@H](N(C)C)[C@H]3OC(C)=O)[C@@H](C)C[C@@]3(CO3)C(=O)[C@H](C)[C@@H](OC(C)=O)[C@@H](C)[C@@H](C)OC(=O)[C@@H]2C)O[C@@H](C)[C@@H]1OC(C)=O [troleandomycin]					little or no activity	
spiramycin					little or no activity	
